Results: patent US20200032271A1, “COMBINATION THERAPY WITH LIPOSOMAL ANTISENSE OLIGONUCLEOTIDES” (Bio-Path Holdings, Inc., priority 2016, published 2020)
[PEt] = P-ethoxy (ethyl phosphotriester) internucleoside linkage

Columns and labels:
[1] = rat, in vivo, iv
Experimental: Blood (0.3 mL) was collected through the right femoral artery at 5, 10, 20, 30, 60, 90, 120, 180, and 240 minutes following injection. After each withdrawal, the catheter was flushed with sodium heparin 1:1000 (Units/mL). Whole blood samples were extracted and assayed for ^32P radioactivity by liquid scintillation as previously described (Tani, 1998; Gutierrez-Puente, 1999). Pharmacokinetic parameters were determined by nonlinear regression analysis (Rstrip; Micro Math, Inc., Salt Lake City, Utah).

[2] = Single-dose toxicity study in mice; settings: mouse
Experimental: Fifteen female ICR mice (5/group) were assigned to a non-injected control group (Group IV) and two treatment groups (Groups V and VI) to receive 20 and 40 mg oligo/kg, respectively, intravenously via the tail vein as a single injection. Animals were observed daily and blood was collected for hematology and clinical chemistry evaluations at two and six weeks post injection. Animals were sacrificed following blood collection at six weeks post-injection and tissues collected for gross and microscopic evaluations of organ toxicity.

BV173 cells = assay: Cell cycle analysis (7-AAD flow cytometry); format: cell-based, human; settings: BP1001 1 day before dasatinib, harvested three days later (FIGS. 8A-D)
Experimental: Cells were then fixed and permeabilized for 1 h at 4° C. with 1×Fixation/Permeabilization buffer (Ebioscience, San Diego, Calif., USA). After permeabilization, cells were washed and incubated with 7-aminoactinomycin D (7-AAD, Biolegend, San Diego, Calif., USA) in the dark at 4° C. for about 30 min. Flow cytometric data acquisition was acquired using BD FACSDiva™ software (BD Biosciences, San Jose, Calif., USA). The flow cytometer was set to collect 20,000 events. Relative percentages in the different cell cycle phases (sub-G1, G1, S, G2/M) were reported.
[…] Three days later, cells were harvested and processed for flow cytometry.

[3] = Tissue distribution study in mice (32P-labeled BP1001); format: in vivo; settings: mouse, 20 mg/kg i.v.
Experimental: Tissue distribution studies of BP1001 were conducted in mice following i.v. administration. Twenty mice (5/group) were divided into three test article groups and one control group. Test article groups were injected i.v. via the tail vein with radio-labeled (^32P) BP1001 at a dose of 20 mg of oligonucleotide per kg of body weight. Injected mice were euthanized by CO2 inhalation at 4, 24, and 48 hours following injection for organ harvest. Control animals were non-injected animals. Spleen, liver, kidney, heart, stomach, lung, and bone marrow tissue were collected from all animals, and tissue samples (50-100 mg) from each organ were weighed and processed. ^32P radioactivity was counted in a scintillation counter. Results were expressed as mean μg BP1001/g tissue. As expected, no radioactivity was detected in control animals. […] BP1001 accumulated in all tissues examined, with the highest accumulation in spleen, liver, and kidney tissue. At 4 h following injection, mean BP1001 tissue concentrations per g of tissue were: 64 μg (spleen), 50 μg (liver), 34 μg (kidney), and ranged from 12-34 μg in other tissues. […] A minimal amount of BP1001 (˜0.4 μg in two femurs) was detected in the bone marrow, where the concentration remained relatively constant for […].

[4] = Phase I study: dose-limiting toxicity and maximum tolerated dose; format: in vivo, human
Experimental: A BP1001 phase I study was conducted in two parts: (A) BP1001 dose escalation and (B) BP1001 with concurrent low-dose cytarabine (LDAC) dose expansion. For dose escalation (Part A), a standard “3+3” design was used in which successive cohorts of 3 or more patients with hematologic malignancies were treated at escalating doses from 5 to 135 mg/m^2 of BP1001 until a maximum tolerated dose (MTD) was identified. For the dose expansion portion of the study (Part B), two successive subsets of patients with AML were treated with BP1001 at the MTD (or highest tested dose [HTD]) and one level below the MTD (or HTD) in combination with a fixed dose of LDAC to further characterize safety and biological effect, as well as identify the recommended phase 2 dose. Both parts of the study employed an open-label, sequential, dose-escalation design to assess safety, tolerability and toxicity, pharmacokinetics (PK), tumor response, and anti-leukemic activity. A total of 39 patients were treated in the study: AML (n=30), CML-BP (n=5), and MDS (n=4). Of 39 patients, 27 were evaluable; 12 failed completion of a full cycle due to disease progression and were replaced per protocol. Only one patient on 5 mg/m^2 experienced a dose-limiting toxicity (DLT), grade 3 mucositis and hand-foot syndrome, while on high-dose hydroxyurea for proliferative CML-BP. The study medication could not be ruled out as a contributing factor, so this event was reported as a DLT. Upon expansion to six patients, no other patient developed a DLT. No other drug related toxicity has been observed in any of the patients treated. […] The HTD for BP1001 is 90 mg/m^2.
The study was designed as a standard 3+3 dose escalation trial for the assessment of safety, pharmacokinetics and efficacy of BP1001 in adult patients diagnosed with refractory/relapsed Philadelphia chromosome positive CML or ALL, AML, or MDS. Cohorts of three patients were enrolled at each dose level. The initial dose of BP1001 was 5 mg/m^2 (Cohort 1). If one patient developed a grade 3 or higher toxicity, three more patients were accrued at that dose level. […]

With “BP1001: liposome-incorporated P-ethoxy antisense oligodeoxynucleotide (5′-ATATTTGGCGATGGCTTC-3′, SEQ ID NO: 1) specific to grb2 mRNA, in neutral DOPC liposomes (DNA, all [PEt], methylation of C not given here; incorporated in neutral DOPC liposomes)” the “t1/2α (initial distribution phase)” value [1] was 5.16 ± 0.3 min, the “Area under the concentration curve (AUC)” value ([1]; 10 mg/kg) was 5.4 ± 0.9 mg·min/mL and the “immediate apparent volume of distribution” value ([1]; 10 mg/kg) was 36.42 ± 1.88 mL. The residence time ([1]; 10 mg/kg) was 309.6 ± 21.5 min, the “terminal phase half-life (t1/2β)” value ([1]; 10 mg/kg) was 3.76 ± 0.22 h and the “WBC counts at six weeks post-injection” value ([2]; single i.v. 30 mg oligo/kg) was “Recovery”. For the same substance, the “group average WBC count at six weeks” value ([2]; single i.v. 40 mg oligo/kg, not statistically different than control) was “not fully recovered”, the morbidity or mortality ([2]; single i.v. 15-40 mg oligo/kg, six weeks observation) was “No signs of morbidity or mortality” and the “drug-related lesions in examined organs” value ([2]; single i.v. 15-40 mg/kg) was “no drug-related lesions”. The “WBC count at two weeks post-injection” value ([2]; single i.v. 30 and 40 mg oligo/kg) was “Reduction”, the “percentage of cells in sub-G1 phase” value (BV173 cells) was 3.1% and the “tissue half-life in lungs” value [3] was ~48 h. For the same substance, the “tissue half-life in spleen, liver, kidney, heart and stomach” value [3] was “approximately 24 h”, the “mean tissue concentration, kidney” value ([3]; 4 h) was 34 μg/g tissue and the “mean tissue concentration, liver” value ([3]; 4 h) was 50 μg/g tissue. For the same substance, the “mean tissue concentration, other tissues” value ([3]; 4 h) was 12-34 μg/g tissue, the “mean tissue concentration, spleen” value ([3]; 4 h) was 64 μg/g tissue and the “amount detected in bone marrow (two femurs)” value ([3]; relatively constant for 72 h) was ~0.4 µg. The “patients with dose-limiting toxicity (grade 3 mucositis and hand-foot syndrome)” value ([4]; 5 mg/m^2, patient on high-dose hydroxyurea for CML-BP, no other DLT after expansion to six) was “one”, the “highest tested dose (HTD)” value ([4]; patients) was 90 mg/m^2 and the “maximum tolerated dose (MTD)” value ([4]; patients, 5 to 90 mg/m^2 i.v. twice weekly) was “not identified”.
